Measured values from patent US20050238672A1, “Antifungal drug delivery” (priority 2004, published 2005).

Experiments:
[1] = solubility of terbinafine in benzyl alcohol; type: physicochemical; conditions: room temperature, with stirring
Method: In a preferred embodiment, the antifungal agent, terbinafine (an allylamine compound) used to treat infections of the nails and of the sub and peri-plantar regions of the foot (moccasin distribution) is dissolved in benzyl alcohol at room temperature with the aid of stirring. […] Two grams of terbinafine are therefore dissolved in 5 ml of benzyl alcohol. To this solution 85 ml of ethyl alcohol anhydrous and 10ml of distilled water are added. The final concentration of the active compound terbinafine, is 2% and that of the preferred carrier, benzyl alcohol 5%.

[2] = test system: T. rubrum, T. mentagrophytes; test: clinical study, topical application, onychomycosis; type: in vivo, human; conditions: after discontinuation of therapy
Text: A total of 10 patients, identified clinically and mycologically (T. rubrum, T. mentagrophytes) were all mycologically cured. Within two weeks of applications all patients with intractable, longstanding (of up to 15 years or more) moccasin distribution fungal dermatomycosis were clinically and mycologically cured. After 2 months of application all patients with severe onychomycosis, also of very long standing duration, appeared mycologically cured (negative cultures). […] Some nails continued to display dystrophic changes commensurate with the slow rate of nail growth and replacement. This persistent and possible prophylactic response is attributed to the unique solubility characteristics of the compounds in question and to the ability of the selected solvents to deliver the drug to the subungual or keratin rich regions where the fungi accumulate, and to persist at such sites in a microcrystalline form after precipitation.
Compositions according to the present invention can be applied by conventional methods, including the use of a small brush with a nail-lacquer bottle, a roll-on applicator, or by a squeeze bottle with a small opening. In the results cited above, a small brush with a nail-lacquer bottle was used.

Q: For `CN(C/C=C/C#CC(C)(C)C)Cc1cccc2ccccc12` [terbinafine], which “solubility in benzyl alcohol” value [1] is on record?
A: greater than 40 % w/vol

Q: What about the “recurrence upon discontinuation of therapy” value [2] of the same compound?
A: lack of any recurrence
